Read-outs that look alike come from different tables or passages of the source. Ends that are not written are not given here. Peptide text beside a SMILES is read from it.
Target: T1, recombinant HLA-DR401 (HLA-DRA1*01:01, HLA-DRB1*04:01) (Homo sapiens, UniProt P01903+P01911, A100K/A169T/F76Y/I96L/K127E/L162R/M171V/N62H/P40V/Q125Y/R42H/S133A/S149N/S66Y/V115G/V209L/W38E)
T1 construct: poly-histidine (C); made in house; host or cells: High Five (Hi5) insect cells, baculovirus (pAcGP67a)
Assay: biochemical
Type: binding

[1] = fluorescence polarization peptide competition, HLA-DR401, sheet Fig7, read-out: Measured IC50
[2] = HLA-DR401, fluorescence polarization competition, Fig3B, read-out: Measured IC50
[3] = estimated from two-point fluorescence polarization competition assay binding plots, HLA-DR401, N = 3 technical replicates per condition, read-out: IC50 (estimated)
[4] = SuppFig6C, fluorescence polarization competition, HLA-DR401, read-out: Measured IC50

AAWERENDMLGWEEG
IC50: 15.2 nM

AAWDPERTCRAWEEG
IC50: 31.8 nM

YVGDMLAWLHQSTASEKEHL
IC50 [1]: 406 nM

VSSFQDILLRMSKMQ
IC50 [2]: > 50000 nM | IC50 (read-out: Measured IC50): > 50000 nM

AAGFKGEQGPKGGPG
IC50 (read-out: Measured IC50): 12100 nM

LLPVKQSVVPLAKGTLITHC
IC50 [1]: 307 nM

AAWESSTDLVGWEEG
IC50: 11.9 nM

CC[C@H](C)[C@H](NC(=O)[C@H](CCCCN)NC(=O)[C@H](CO)NC(=O)[C@@H](NC(=O)CNC(=O)[C@H](CC(N)=O)NC(=O)[C@@H](NC(=O)[C@H](CCCNC(=N)N)NC(=O)[C@@H](NC(=O)[C@H](Cc1ccc(O)cc1)NC(=O)[C@H](CC(C)C)NC(=O)[C@H](Cc1ccccc1)NC(=O)[C@@H](N)CCSC)C(C)C)[C@@H](C)O)[C@@H](C)O)C(=O)N[C@@H](CCCCN)C(=O)N[C@@H](CCSC)C(=O)N[C@@H](CCCCN)C(=O)N[C@@H](Cc1c[nH]c2ccccc12)C(=O)NCC(=O)N[C@@H](CCSC)C(=O)N[C@@H](CCC(=O)O)C(=O)O
IC50 [1]: 6100 nM

PIPVIFHRIATELSKTNDIN
IC50 [1]: 42.1 nM

MKRRPVWTDINPKAVTNDEL
IC50 [1]: 21 nM

AAWVRVVPMRAWEEG
IC50 [3]: < 10 nM

AAWVPCGDMVSWEEG
IC50: 26.5 nM

CC(C)C[C@H](NC(=O)[C@H](C)NC(=O)[C@H](C)N)C(=O)N[C@@H](CC(N)=O)C(=O)N[C@H](C(=O)N[C@@H](CCC(=O)O)C(=O)N[C@@H](CCCNC(=N)N)C(=O)N[C@H](C(=O)N[C@@H](CS)C(=O)N[C@@H](Cc1c[nH]cn1)C(=O)N[C@@H](CS)C(=O)N[C@@H](Cc1c[nH]c2ccccc12)C(=O)N[C@@H](CCC(=O)O)C(=O)N[C@@H](CCC(=O)O)C(=O)NCC(=O)O)[C@@H](C)O)C(C)C (H-AALNVERTCHCWEEG-OH)
IC50: 33.4 nM

AAFLGEWSLLSWEEG
IC50 [3]: < 10 nM

CSCC[C@H](NC(=O)[C@H](CO)NC(=O)[C@H](Cc1ccccc1)NC(=O)[C@H](CC(N)=O)NC(=O)[C@H](C)NC(=O)[C@@H](NC(=O)[C@H](Cc1ccccc1)NC(=O)CNC(=O)[C@H](Cc1ccc(O)cc1)NC(=O)[C@H](CCCNC(=N)N)NC(=O)[C@H](Cc1ccc(O)cc1)NC(=O)[C@H](Cc1ccccc1)NC(=O)[C@H](Cc1ccccc1)NC(=O)[C@@H](N)CO)C(C)C)C(=O)N[C@@H](CCC(=O)O)C(=O)O
IC50 [2]: > 50000 nM | IC50 (read-out: Measured IC50): > 50000 nM

AAGFKGEQGPKGYPG
IC50 [4]: 115 nM

AAGFPGEQGPKGEPG
IC50 [1]: > 50000 nM | IC50 (read-out: Measured IC50): > 50000 nM

AAYSVEPCYRMWEEG
IC50 [3]: 37 nM

AAANMDTSLPAWEEG
IC50: 180 nM

AAGVIDPTMLGWEEG
IC50: 29.3 nM

AAERKMSVLSAWEEG
IC50: 817 nM

CC(C)C[C@H](NC(=O)CNC(=O)[C@H](CCCNC(=N)N)NC(=O)[C@H](CCC(=O)O)NC(=O)[C@H](CC(C)C)NC(=O)[C@@H](NC(=O)[C@H](Cc1c[nH]c2ccccc12)NC(=O)[C@H](C)NC(=O)[C@H](C)N)C(C)C)C(=O)N[C@@H](CS)C(=O)N[C@@H](CS)C(=O)N[C@@H](Cc1c[nH]c2ccccc12)C(=O)N[C@@H](CCC(=O)O)C(=O)N[C@@H](CCC(=O)O)C(=O)NCC(=O)O (H-AAWVLERGLCCWEEG-OH)
IC50 [3]: 34 nM

AASFLSDSVMGWEEG
IC50 [3]: < 10 nM

ASDSSYRNECPMAEKEDTQM
IC50 [1]: 47.4 nM

ESSISDKNYWKTVSNAFSVI
IC50 [1]: 24.7 nM

EVKYCTFSKDRSKPIPGMTL
IC50 [1]: > 50000 nM | IC50 (read-out: Measured IC50): > 50000 nM

AALGLDLRAYVWEEG
IC50 [3]: 7000 nM

VYGWATLVSERSNNGMQRIL
IC50 [1]: 94 nM

CC(C)C[C@H](NC(=O)[C@H](CCC(=O)O)NC(=O)[C@H](CC(N)=O)NC(=O)[C@H](CC(C)C)NC(=O)[C@H](CCC(N)=O)NC(=O)[C@@H](NC(=O)[C@H](CO)NC(=O)[C@H](CO)NC(=O)[C@H](CS)NC(=O)[C@H](CO)NC(=O)[C@H](CC(C)C)NC(=O)[C@H](CCCNC(=N)N)NC(=O)[C@H](Cc1ccccc1)NC(=O)[C@H](CC(C)C)NC(=O)[C@H](CCC(N)=O)NC(=O)[C@@H]1CCCN1C(=O)[C@H](CC(C)C)NC(=O)[C@H](CC(=O)O)NC(=O)[C@H](CS)NC(=O)[C@@H](N)Cc1ccc(O)cc1)[C@@H](C)O)C(=O)O (H-YCDLPQLFRLSCSSTQLNEL-OH)
IC50 [1]: 39.3 nM

CC[C@H](C)[C@H](NC(=O)CNC(=O)[C@@H](NC(=O)[C@H](CCSC)NC(=O)CNC(=O)[C@H](CCSC)NC(=O)[C@@H](NC(=O)[C@H](CC(N)=O)NC(=O)[C@H](CC(=O)O)NC(=O)[C@@H](NC(=O)[C@@H]1CCCN1C(=O)[C@H](CCC(=O)O)NC(=O)[C@@H](NC(=O)CNC(=O)[C@H](Cc1c[nH]c2ccccc12)NC(=O)[C@H](CC(N)=O)NC(=O)[C@H](CCC(N)=O)NC(=O)[C@H](Cc1ccccc1)NC(=O)[C@@H](N)CC(C)C)C(C)C)[C@@H](C)CC)C(C)C)[C@@H](C)CC)C(=O)N[C@@H](CC(C)C)C(=O)O
IC50 [1]: 2520 nM

AGGFKGEQGPKGYNG
IC50 [4]: 134 nM

CC(C)C[C@H](NC(=O)[C@H](C)NC(=O)[C@H](C)N)C(=O)N[C@@H](CO)C(=O)N[C@@H](CC(C)C)C(=O)N[C@@H](CCC(=O)O)C(=O)N[C@@H](CCCNC(=N)N)C(=O)N[C@@H](CO)C(=O)N[C@@H](CS)C(=O)N[C@@H](CCCCN)C(=O)N[C@@H](CS)C(=O)N[C@@H](Cc1c[nH]c2ccccc12)C(=O)N[C@@H](CCC(=O)O)C(=O)N[C@@H](CCC(=O)O)C(=O)NCC(=O)O (H-AALSLERSCKCWEEG-OH)
IC50: 24.9 nM

YSIEVLLVLDDSVVRFHGKE
IC50 [1]: > 50000 nM | IC50 (read-out: Measured IC50): > 50000 nM

RKDLIVMLMDTDVNKQDKQK
IC50 [1]: 3170 nM

AAFFGWEWGPDGEPG
IC50 (read-out: Measured IC50): 5670 nM

AARYATSKSKGWEEG
IC50 [3]: 9520 nM

VYGWATLVSERSKNGMQRIL
IC50 [1]: 245 nM

FVGNIAEDLCLDITKLSARG
IC50 [1]: 86 nM

YWKQWLSLRNPILVF
IC50 (fluorescence polarization competition, […], competitor 20 µM to 1.28 nM in five-fold dilutions, n = 3 replicates, read-out: Measured IC50): 2510 nM

AGEYRNDPNNLAYNG
IC50: 26.5 nM

AAGFKGEQGPKGEPG
IC50 (read-out: Measured IC50): 2910 nM

AAEFRNEDGPLGEPG
IC50 [4]: 79.9 nM

CC[C@H](C)[C@H](NC(=O)[C@H](C)NC(=O)[C@H](CC(=O)O)NC(=O)[C@H](Cc1ccc(O)cc1)NC(=O)[C@H](CC(C)C)NC(=O)[C@@H]1CCCN1C(=O)[C@@H](NC(=O)CNC(=O)[C@@H](N)CCC(=O)O)[C@@H](C)CC)C(=O)N[C@@H](CCCCN)C(=O)N[C@@H](CS)C(=O)N[C@@H](CCSC)C(=O)N[C@@H](CCCNC(=N)N)C(=O)N[C@H](C(=O)N[C@@H](Cc1ccccc1)C(=O)N[C@@H](Cc1ccccc1)C(=O)NCC(=O)N[C@@H](Cc1c[nH]c2ccccc12)C(=O)N[C@@H](CCCCN)C(=O)N[C@@H](CCC(=O)O)C(=O)O)[C@@H](C)O
IC50 [1]: 61.4 nM

AAVNDQLTVNSWEEG
IC50 [3]: 4500 nM

CC(C)C[C@H](N)C(=O)N[C@@H](Cc1ccccc1)C(=O)N[C@@H](CCC(=O)O)C(=O)N[C@@H](CCCCN)C(=O)N[C@@H](Cc1ccccc1)C(=O)N[C@@H](Cc1ccccc1)C(=O)N1CCC[C@H]1C(=O)N[C@@H](CO)C(=O)N[C@@H](CO)C(=O)N[C@@H](CO)C(=O)N[C@@H](Cc1ccc(O)cc1)C(=O)N[C@@H](CCCNC(=N)N)C(=O)N[C@@H](CCCNC(=N)N)C(=O)N1CCC[C@H]1C(=O)N[C@H](C(=O)O)C(C)C
IC50 [2]: > 50000 nM | IC50 (read-out: Measured IC50): > 50000 nM

AAWDPDKTVYGWEEG
IC50: 43.9 nM

CSCC[C@H](NC(=O)[C@H](Cc1ccc(O)cc1)NC(=O)CNC(=O)[C@@H](N)CCCCN)C(=O)N[C@@H](Cc1ccccc1)C(=O)N[C@@H](CCC(=O)O)C(=O)N[C@@H](CO)C(=O)N[C@@H](CCCCN)C(=O)N[C@@H](CO)C(=O)N[C@@H](CCSC)C(=O)N[C@@H](CCCCN)C(=O)N[C@@H](CC(C)C)C(=O)N[C@@H](CCCNC(=N)N)C(=O)N[C@H](C(=O)N[C@@H](CCC(N)=O)C(=O)O)[C@@H](C)O
IC50 (read-out: Measured IC50): 38700 nM

CSCC[C@H](NC(=O)[C@H](CO)NC(=O)[C@@H](NC(=O)[C@H](Cc1ccccc1)NC(=O)[C@H](CC(N)=O)NC(=O)[C@@H](NC(=O)[C@@H](N)C(C)C)C(C)C)C(C)C)C(=O)N[C@@H](CCC(=O)O)C(=O)N[C@@H](Cc1ccccc1)C(=O)N[C@@H](CO)C(=O)N[C@@H](CC(C)C)C(=O)N[C@H](C(=O)N[C@@H](CC(=O)O)C(=O)N1CCC[C@H]1C(=O)N[C@@H](CCCNC(=N)N)C(=O)O)[C@@H](C)O
IC50 (read-out: Measured IC50): 7970 nM

AIGFKGEQGPKGGVG
IC50 (read-out: Measured IC50): 23300 nM

AAWVVEHSEVGWEEG
IC50: 19.4 nM

CSCC[C@H](NC(=O)[C@H](CCCNC(=N)N)NC(=O)[C@@H](N)CO)C(=O)N[C@@H](CCC(N)=O)C(=O)N[C@@H](Cc1ccccc1)C(=O)N[C@@H](CO)C(=O)N[C@@H](CO)C(=O)N[C@@H](Cc1ccccc1)C(=O)N[C@H](C(=O)N[C@H](C(=O)N[C@@H](CC(N)=O)C(=O)N[C@H](C(=O)N[C@@H](CCCNC(=N)N)C(=O)NCC(=O)N[C@@H](CO)C(=O)O)C(C)C)C(C)C)[C@@H](C)O
IC50 (read-out: Measured IC50): 3380 nM

WRAPSYILSPELTQRLFSAA
IC50 [1]: 248 nM

AAWHGEGSQIGWEEG
IC50: 17.5 nM

CC(C)C[C@H](NC(=O)[C@H](C)NC(=O)[C@H](C)N)C(=O)N[C@H](C(=O)N[C@@H](CC(=O)O)C(=O)N[C@@H](CC(=O)O)C(=O)N1CCC[C@H]1C(=O)N[C@H](C(=O)N[C@@H](CS)C(=O)N[C@@H](CCCNC(=N)N)C(=O)N[C@@H](CS)C(=O)N[C@@H](Cc1c[nH]c2ccccc12)C(=O)N[C@@H](CCC(=O)O)C(=O)N[C@@H](CCC(=O)O)C(=O)NCC(=O)O)[C@@H](C)O)C(C)C (H-AALVDDPTCRCWEEG-OH)
IC50: 29.3 nM

AAWHNDPACKGWEEG
IC50: 40.7 nM

AAVADDFSCRGWEEG
IC50: 47 nM

PIPVIFHRIATELRKTNDIN
IC50 [1]: 698 nM

CC(C)C[C@H](NC(=O)[C@H](C)NC(=O)[C@H](C)N)C(=O)N[C@@H](CCCNC(=N)N)C(=O)N[C@@H](CCC(=O)O)C(=O)N[C@@H](CCC(=O)O)C(=O)N[C@@H](Cc1c[nH]cn1)C(=O)N[C@H](C(=O)N[C@@H](CS)C(=O)N[C@@H](CCCCN)C(=O)N[C@@H](CS)C(=O)N[C@@H](Cc1c[nH]c2ccccc12)C(=O)N[C@@H](CCC(=O)O)C(=O)N[C@@H](CCC(=O)O)C(=O)NCC(=O)O)[C@@H](C)O (H-AALREEHTCKCWEEG-OH)
IC50: 36.9 nM
